In PubChem BioAssay AID1996:
Converted amounts (≈) assume the structure as drawn.

conditions: buffer; pH 7.4; 200.0 µM

Compound | solubility kinetic [µg/mL]
Clc1ccccc1CN1CCSCC1 | 1.6 (≈ 7.02 µM)
O=C(Nc1ccc2oc(=O)ccc2c1)c1ccccc1[N+](=O)[O-] | 5.7 (≈ 18.4 µM)
O=C(CNc1cccc(S(=O)(=O)N2CCCC2)c1)Nc1cccc(C(F)(F)F)c1 | 21.1 (≈ 49.4 µM)
CC(=O)N(C)c1ccc(N=Cc2cc3c(cc2[N+](=O)[O-])OCO3)cc1 | 44.1 (≈ 129 µM)
CCCCn1c(CCl)nc2cc(S(=O)(=O)N3CCOCC3)ccc21 | > 55.8
Cc1cccc(-n2c(C)cc(/C=C3\NC(=O)NC3=O)c2C)c1 | 1.8 (≈ 6.09 µM)
CCC(C)Oc1ccc(C(=O)Nc2ccc(CN3CCOCC3)cc2)cc1 (stereo not drawn) | 54.1 (≈ 147 µM)
O=C(CSc1cccc[n+]1[O-])NC1CCCCCCC1 | 39.3 (≈ 133 µM)
COc1ccc([N+](=O)[O-])cc1NC(=O)Nc1ccc(OC)c(OC)c1 | 0.3 (≈ 0.864 µM)
CCOC(=O)N1CCC(NS(=O)(=O)c2ccc(C#N)cc2)CC1 | > 50.6
CCOCCCNC(=O)c1cc2c(=O)n3cccc(C)c3nc2s1 | 4.1 (≈ 11.9 µM)
Cc1ccc(NC(=O)CC2NCCN(Cc3ccccc3)C2=O)cc1 (stereo not drawn) | 43.6 (≈ 129 µM)
Cc1ccc(-n2c(O)c(C=NCC3CCCO3)c(=O)[nH]c2=O)c(C)c1 (stereo not drawn) | > 51.5
Cc1ccc(C(=O)N2CCOCC2)c(F)c1F | 33.9 (≈ 141 µM)
CC1CCCC(C)N1C(=O)COC(=O)c1cc(=O)[nH]c2ccccc12 (stereo not drawn) | > 51.4
CC1CCN(C(=O)NC(=O)c2ccccc2)CC1 | > 36.9
O=C(CNS(=O)(=O)c1cccc(C(F)(F)F)c1)NC1CCCCCC1 | 48.7 (≈ 129 µM)
COc1cccc(C(C)NC(=O)Nc2cc(Cl)ccc2OC)c1 (stereo not drawn) | < 0.4
O=C(CC1CCC1)NC(c1ccccc1)c1ccccc1 | 6.5 (≈ 23.3 µM)
COc1ccc(C(=O)N2CCN(c3ccccn3)CC2)cc1[N+](=O)[O-] | 49.5 (≈ 145 µM)

Compound | solubility kinetic [µg/mL]
CC(C)(C)c1nnc(NS(=O)(=O)c2ccc([N+](=O)[O-])cc2)s1 | > 51.4
CCC(=O)Nc1cccc(NC(=O)c2ccc(C)cc2Cl)c1 | 0.6 (≈ 1.89 µM)
Cc1nc(-c2ccc(C(=O)N3CCCC3)cc2)cs1 | > 40.9
COc1ccc(-c2noc(CN(C(=O)c3ccoc3C)C(C)C)n2)cc1 | 38.7 (≈ 109 µM)
Cc1c(C)n(CCc2c[nH]c3ccccc23)ccc1=O | 38.5 (≈ 145 µM)
O=C(NN1C(=O)NC2(CCCCC2)C1=O)c1cc(F)cc(F)c1 | > 48.5
NC(=O)CS(=O)(=O)c1nc2ccccc2n1Cc1ccccn1 | > 49.6
COC(=O)CC(N)c1ccc(Br)cc1.Cl (stereo not drawn) | > 44.2
O=C(/C=C/c1ccc(F)cc1)c1ccc(N2CCOCC2)cc1 | 2.3 (≈ 7.39 µM)
Cc1ccnc(N2CCC(C(=O)Nc3ccc4c(c3)OCCO4)CC2)n1 | 13.6 (≈ 38.4 µM)
Cc1ccc(NCC(=O)Nc2ccc(Br)cc2)cc1C | 3.7 (≈ 11.1 µM)
O=C(Nc1ccc(C(=O)O)cc1)Nc1ccc([N+](=O)[O-])cc1 | > 45.2
Cc1ccc(-n2c(O)c(C=NCc3ccccn3)c(=O)[nH]c2=S)cc1 | 29.6 (≈ 84 µM)
CN(C)CC1CCCCC1=O.Cl (stereo not drawn) | > 28.8
CC(=O)Nc1c(-c2ccc(Cl)cc2)c(=O)c2ccccc2n1C | 14.8 (≈ 45.3 µM)
COc1ccc2[nH]c(C(=O)NCc3ccccc3)cc2c1 | 1.3 (≈ 4.64 µM)
COc1ccc2cc(C(=O)N3CCN(c4ccc(F)cc4)CC3)[nH]c2c1 | 1.6 (≈ 4.53 µM)
O=C(CSCc1ccccc1F)NCc1ccccc1 | > 43.4
CCCN1C(=O)CC(=O)N=C1SCC(=O)Nc1ccccc1F | > 50.6
Cc1ccccc1NC(=O)Cn1c(=O)sc2ccccc21 | 1.9 (≈ 6.37 µM)

Compound | solubility kinetic [µg/mL]
CC(C)CN1CCN(Cc2ccc(C(F)(F)F)cc2)CC1CCO (stereo not drawn) | 45.5 (≈ 132 µM)
O=C(CNC(=O)C1CCCCC1)Nc1ccc(F)c(Cl)c1 | 8.2 (≈ 26.2 µM)
CCC(C)Nc1cc(C)c(C#N)c2nc3ccccc3n12 (stereo not drawn) | 3.7 (≈ 13.3 µM)
O=C(NCCNC(=O)c1ccccn1)c1ccc(-c2ccccc2)cc1 | 3.3 (≈ 9.55 µM)
Cc1ccc(-c2csc(NC(=O)c3c(C)noc3C)n2)s1 | 15.8 (≈ 49.5 µM)
NC(=O)c1ccc(N=C2C(=O)Nc3ccc([N+](=O)[O-])cc32)cc1 | 13.1 (≈ 42.2 µM)
O=C(NC(=S)Nc1cccc([N+](=O)[O-])c1)C1CCCCC1 | < 0.2
O=[N+]([O-])c1ccc(Oc2cccc3cccnc23)c(Cl)c1 | 14.1 (≈ 46.9 µM)
CCOc1ccc(Cc2c(C)[nH]c3ccc(C(=O)O)cc3c2=S)cc1 | 36.2 (≈ 102 µM)
CC1CN(C(=O)CS(=O)(=O)Cc2ccccc2)CC(C)O1 (stereo not drawn) | > 46.7
COc1ccc(OCCC(=O)OCC(=O)Nc2cccc(S(=O)(=O)N3CCCCC3)c2)cc1 | 30.5 (≈ 64 µM)
CCn1c(=O)c(C(=O)NCc2ccc(F)cc2)c(O)c2ccccc21 | < 0.4
Cc1nc2ccccn2c1C(=O)NC1CCCC1 | > 36.5
COc1ccc(C2C(C(C)=O)=C(C)Nc3ncnn32)cc1[N+](=O)[O-] (stereo not drawn) | > 49.4
O=C(O)CCCN1C(=O)/C(=C/c2ccncc2)SC1=S | > 46.3
CC(C)Nc1nc(-c2ccncc2)nc(-c2ccccc2)c1C#N | < 0.1
Cc1ccc(C)c(NC(=S)N(CCc2ccncc2)C(C)C)c1 | > 49.1
O=C(NCCc1ccccc1)Oc1ccc(Cl)cc1 | 2.3 (≈ 8.34 µM)
